Data reported in patent US8367873B2, “Phenyl-substituted bicyclooctane-1,3-dione derivatives” (Bayer Cropscience AG, priority 2008, dated 2013).

Experiments:
Type in all cases: in vivo
[1] = tested on: Alopecurus myosuroides; test: Herbicidal post-emergence action; details: post-emergence method; for herbicidal effect against ALOMY (Alopecurus myosuroides): 80 g/ha
Summary of the method: (§1)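 Greenhouse-grown weeds were treated post-emergence at the one-leaf stage, two to three weeks after sowing in sandy loam. Compounds formulated as WP were sprayed at various rates in 600 l/ha water with 0.2% wetting agent. Damage was scored visually after about three weeks versus untreated controls (0% = like control, 100% = dead).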

[2] = tested on: Lolium multiflorum; test: Herbicidal post-emergence action; details: post-emergence method; for herbicidal effect against LOLMU (Lolium multiflorum): 80 g/ha
Summary of the method: as §1

[3] = tested on: Echinocloa crus-galli; test: Herbicidal post-emergence action; details: post-emergence method; for herbicidal effect against ECHCG (Echinochloa crus-galli): 80 g/ha
Summary of the method: as §1

[4] = tested on: Setaria viridis; test: Herbicidal post-emergence action; details: post-emergence method; for herbicidal effect against SETVI (Setaria viridis): 80 g/ha
Summary of the method: as §1

[5] = tested on: monocotylidonous and dicotylidonous weed and crop plants; test: Herbicidal pre-emergence action (other test plants); details: pre-emergence method, 80 g/ha, greenhouse, visual assessment vs untreated controls
Summary of the method: (§2)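 Visual percent effect relative to untreated controls (0% = like control, 100% = dead) assessed three weeks after treatment in the greenhouse. Compounds, as wettable powders in water (600 l/ha, 0.2% wetting agent), were sprayed at different amounts onto covering soil over seeds sown in sandy loam.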

[6] = tested on: Alopecurus myosuroides; test: Herbicidal pre-emergence action; details: pre-emergence method, 80 g/ha, greenhouse, visual assessment vs untreated controls
Summary of the method: as §2

[7] = tested on: Lolium multiflorum; test: Herbicidal pre-emergence action; details: pre-emergence method, 80 g/ha, greenhouse, visual assessment vs untreated controls
Summary of the method: as §2

[8] = tested on: Echinocloa crus-galli; test: Herbicidal pre-emergence action; details: pre-emergence method, 80 g/ha, greenhouse, visual assessment vs untreated controls
Summary of the method: as §2

[9] = tested on: Setaria viridis; test: Herbicidal pre-emergence action; details: pre-emergence method, 80 g/ha, greenhouse, visual assessment vs untreated controls
Summary of the method: as §2

[10] = tested on: monocotylidonous and dicotylidonous weed and crop plants; test: Herbicidal post-emergence action (other test plants); details: post-emergence method; for herbicidal effect against AVEFA (Avena fatua): 80 g/ha
Summary of the method: as §1

SMILES	herbicidal effect against ALOMY (Alopecurus myosuroides) [1] [%]	herbicidal effect against LOLMU (Lolium multiflorum) [2] [%]	herbicidal effect against ECHCG (Echinochloa crus-galli) [3] [%]	herbicidal effect against SETVI (Setaria viridis) [4] [%]	herbicidal effect AVEFA [5] [%]	herbicidal effect ALOMY [6] [%]	herbicidal effect LOLMU [7] [%]	herbicidal effect ECHCG [8] [%]	herbicidal effect SETVI [9] [%]	herbicidal effect against AVEFA (Avena fatua) [10] [%]	pest or weed control at 80 g/ha ([1]; Alopecurus myosuroides, 504 h, read-out: herbicidal effect against ALOMY (Alopecurus myosuroides)) [%]	pest or weed control at 80 g/ha ([2]; Lolium multiflorum, 504 h, read-out: herbicidal effect against LOLMU (Lolium multiflorum)) [%]	pest or weed control at 80 g/ha ([3]; Echinochloa crus-galli, 504 h, read-out: herbicidal effect against ECHCG (Echinochloa crus-galli)) [%]	pest or weed control at 80 g/ha ([4]; Setaria viridis, 504 h, read-out: herbicidal effect against SETVI (Setaria viridis)) [%]	pest or weed control at 80 g/ha ([10]; 504 h, Avena fatua, read-out: herbicidal effect against AVEFA (Avena fatua)) [%]
CCOC(=O)OC1=C(c2c(CC)cc(C)cc2CC)C(=O)[C@@H]2CC3(C[C@H]12)OCC=CCO3 (relative stereo) [I-c-11]	80	90	100	90	70	90	90	100	90	80					
C=C1COC2(C[C@@H]3C(OC(=O)OCC)=C(c4c(CC)cc(C)cc4CC)C(=O)[C@@H]3C2)OC1 (relative stereo) [I-c-12]	90	100	100	100	80	100	100	100	100	90					
C=C1C[C@@H]2C(O)=C(c3c(CC)cc(C)cc3CC)C(=O)[C@@H]2C1 (stereo in doubt) [I-a-5, 2-(2,6-diethyl-4-methylphenyl)-3-hydroxy-5-methylidene-4,5,6,6a-tetrahydropentalen-1(3 aH)-one]					60	60	90	80	70		60	90	100	100	50
CCc1cc(C)cc(CC)c1C1=C(O)C2CC3(COC(CC)O3)CC2C1=O (centres unmarked) [I-a-6]	90	100	100	90	60	100	100	60	60	70					
CCc1cc(C)cc(CC)c1C1=C(O)C2CC3(CC2C1=O)OC(C)CC(C)O3 (centres unmarked) [I-a-15]	90	100	100	90	40	80	100	70	70	90					
Cc1cc(C)c(C2=C(O)C3CC4(CC3C2=O)OCCO4)c(C)c1 (centres unmarked) [I-a-39]	100	100	90	90	70	80	100	0	30	20					
Cc1cc(C)c(C2=C(O)C3CC4(CC3C2=O)OCCCCO4)c(C)c1 (centres unmarked) [I-a-40]	80	90	90	80	40	50	100	80	50	60					
C=C1CC2C(=O)C(c3c(C)cc(C)cc3OC)=C(O)C2C1 (centres unmarked) [I-a-45]	0	0	80	80	60	80	80	100	100	0					
COc1cc(C)cc(C)c1C1=C(O)C2CC3(CC2C1=O)OCCO3 (centres unmarked) [I-a-48]	80	100	100	100	60	80	80	40	70	90					
COc1cc(C)cc(C)c1C1=C(O)C2CC3(CC2C1=O)OCC=CCO3 (centres unmarked) [I-a-49]	100	100	100	100	90	100	100	100	90	100					
COc1cc(C)cc(C)c1C1=C(O)C2CC3(CC2C1=O)OCCCCO3 (centres unmarked) [I-a-50]	100	100	100	100	60	100	100	80	70	100					
C=C1CC2C(=O)C(c3c(C)cc(C)cc3CC)=C(O)C2C1 (centres unmarked) [I-a-55]	20	40	100	100	60	60	50	100	90	0					
CCc1cc(C)cc(C)c1C1=C(O)C2CC3(CC2C1=O)OCCO3 (centres unmarked) [I-a-57]	100	100	100	100	60	80	100	100	90	100					
CCc1cc(C)cc(C)c1C1=C(O)C2CC3(CC2C1=O)OCCCCO3 (centres unmarked) [I-a-61]	90	100	100	90	60	70	100	80	60	90					
CCc1cc(C)cc(C)c1C1=C(O)C2CC3(COC(C)(C)O3)CC2C1=O (centres unmarked) [I-a-62]	100	100	100	90	40	100	100	100	90	80					
CCc1cc(C)cc(CC)c1C1=C(O)C2CC(=NOC(C)(C)C)CC2C1=O (centres unmarked) [I-a-68]	90	100	100	40	40	40	80	50	0	0					
CCc1cc(C)cc(CC)c1C1=C(O)C2CC(=NOCC(C)C)CC2C1=O (centres unmarked) [I-a-69]	90	100	100	80	70	50	70	20	80	30					
